In patent US7306804B2 (priority 1998, dated 2007):
Entries after “also recorded” stand apart in the source; their conditions may differ. Where two headings read alike, the source gives them in different places.

Assays:
[1] = test system: peptide-pulsed autologous EBV-transformed B cells (B-LCL); format: cell-based, human
[2] = test system: PBMCs from control and HIV-1 infected chimpanzees; format: cell-based, chimpanzee; details: for number of HIV-infected chimpanzees with positive proliferative responses (SI>2.0): nine HIV-infected chimpanzees tested
[3] = test system: PBMCs from normal and HIV-positive individuals; format: cell-based, human; details: for number of HIV+ individuals with positive proliferative responses: 17 HIV+ individuals tested
[4] = test system: anti-peptide antibodies in serum; format: binding, chimpanzee; design: key: +, Positive (Titer > 1:100); −, Negative (Titer < 1:100)
[5] = test system: anti-peptide antibodies in serum; format: binding, human; design: key to Anti-peptide antibody response: +, Positive (titer above control); −, Negative (titer below control)
[6] = test system: HIV envelope protein gp160; details: cited from earlier work; for T-cell proliferative response to immunizing peptide and HIV Env protein gp160 / antibodies recognizing recombinant gp160: immunized mice; for T-cell proliferation responses: two F1 hybrid mouse strains (B6C3 F1 and A.SW×Balb/c F1)
PBMCs = details: cited from earlier work

Sequence: VYYGVPVWKEA [Peptide 104]
- % Specific lysis at various E:T ratios 12.5:1 ([1]; E:T 12.5:1, PBMCs from patient restimulated 7 days in phytohemagglutinin medium, peptide-pulsed autologous B-LCL): 1.5%
- % Specific lysis at various E:T ratios 25:1 ([1]; E:T 25:1, PBMCs from patient restimulated 7 days in phytohemagglutinin medium, peptide-pulsed autologous B-LCL): 3.7%
- % Specific lysis at various E:T ratios 50:1 ([1]; E:T 50:1, PBMCs from patient restimulated 7 days in phytohemagglutinin medium, peptide-pulsed autologous B-LCL): 9.3%
- % Specific lysis at various E:T ratios 100:1 ([1]; E:T 100:1, PBMCs from patient restimulated 7 days in phytohemagglutinin medium, peptide-pulsed autologous B-LCL): 12.2%
- CTL activity against peptide-pulsed autologous B-LCLs ([1]; PBMCs from LTNP HD restimulated 7 days with PHA): significant CTL activity
- specific lysis of peptide-pulsed target cells ([1]; […], compared with restimulated PBMCs): also observed
- T-cell proliferative response ([2]; chimpanzee 40, control normal): − (−, Negative (SI < 2.0))
- T-cell proliferative response ([2]; chimpanzee 62, HIV-infected): + (+, Positive (Stimulation Index [SI] > 2.0))
- T-cell proliferative response ([2]; chimpanzee 69, HIV-infected): + (+, Positive (Stimulation Index [SI] > 2.0))
- T-cell proliferative response ([2]; chimpanzee 73, control normal): − (−, Negative (SI < 2.0))
- T-cell proliferative response ([2]; chimpanzee 80, HIV-infected): + (+, Positive (Stimulation Index [SI] > 2.0))
- T-cell proliferative response ([2]; chimpanzee 99, HIV-infected): + (+, Positive (Stimulation Index [SI] > 2.0))
- T-cell proliferative response ([2]; chimpanzee 100, HIV-infected): − (−, Negative (SI < 2.0))
- T-cell proliferative response ([2]; chimpanzee 139, HIV-infected): + (+, Positive (Stimulation Index [SI] > 2.0))
- T-cell proliferative response ([2]; chimpanzee 175, HIV-infected): + (+, Positive (Stimulation Index [SI] > 2.0))
- T-cell proliferative response ([2]; chimpanzee 247, HIV-infected): − (−, Negative (SI < 2.0))
- T-cell proliferative response ([2]; chimpanzee 310, HIV-infected): + (+, Positive (Stimulation Index [SI] > 2.0))
- SI values ([2]; in three HIV-infected chimpanzees): above 5.1
- number of HIV-infected chimpanzees with positive proliferative responses (SI>2.0) [2]: seven of the nine
- number of HIV+ individuals with positive proliferative responses [3]: eight of the 17
- T-cell proliferative response ([3]; HIV-positive patient MSf): − (−, Negative (SI < 2.0))
- T-cell proliferative response ([3]; HIV-positive patient MSm): − (−, Negative (SI < 2.0))
- T-cell proliferative response ([3]; HIV-positive patient eight): − (−, Negative (SI < 2.0))
- T-cell proliferative response ([3]; HIV-positive patient eleven): + (+, Positive (Stimulation Index [SI] > 2.0))
- T-cell proliferative response ([3]; HIV-positive patient fifteen): + (+, Positive (Stimulation Index [SI] > 2.0))
- T-cell proliferative response ([3]; HIV-positive patient five): − (−, Negative (SI < 2.0))
- T-cell proliferative response ([3]; HIV-positive patient four): − (−, Negative (SI < 2.0))
- T-cell proliferative response ([3]; HIV-positive patient fourteen): − (−, Negative (SI < 2.0))
- T-cell proliferative response ([3]; HIV-positive patient nine): + (+, Positive (Stimulation Index [SI] > 2.0))
- T-cell proliferative response ([3]; HIV-positive patient one): − (−, Negative (SI < 2.0))
- T-cell proliferative response ([3]; HIV-positive patient seven): − (−, Negative (SI < 2.0))
- T-cell proliferative response ([3]; HIV-positive patient six): + (+, Positive (Stimulation Index [SI] > 2.0))
- T-cell proliferative response ([3]; HIV-positive patient ten): − (−, Negative (SI < 2.0))
- T-cell proliferative response ([3]; HIV-positive patient thirteen): + (+, Positive (Stimulation Index [SI] > 2.0))
- T-cell proliferative response ([3]; HIV-positive patient three): + (+, Positive (Stimulation Index [SI] > 2.0))
- T-cell proliferative response ([3]; HIV-positive patient twelve): + (+, Positive (Stimulation Index [SI] > 2.0))
- T-cell proliferative response ([3]; HIV-positive patient two): + (+, Positive (Stimulation Index [SI] > 2.0))
- T-cell proliferative response ([3]; Normal-1 (HIV-seronegative)): − (−, Negative (SI < 2.0))
- T-cell proliferative response ([3]; Normal-2 (HIV-seronegative)): − (−, Negative (SI < 2.0))
- SI values ([3]; in six of the eight responding HIV+ individuals): above 4.1
- Anti-peptide antibody response [4]: −
- Anti-peptide antibody response ([4]; chimpanzee 40, control normal): −
- Anti-peptide antibody response ([4]; chimpanzee 73, control normal): −
- number of HIV+ individuals with positive antibody titers (<1:1280) [5]: three
- Anti-peptide antibody response ([5]; HIV-positive patient MSf): −
- Anti-peptide antibody response ([5]; HIV-positive patient MSm): −
- Anti-peptide antibody response ([5]; HIV-positive patient eight): −
- Anti-peptide antibody response ([5]; HIV-positive patient eleven): −
- Anti-peptide antibody response ([5]; HIV-positive patient fifteen): −
- Anti-peptide antibody response ([5]; HIV-positive patient five): −
- Anti-peptide antibody response ([5]; HIV-positive patient four): +
- Anti-peptide antibody response ([5]; HIV-positive patient fourteen): −
- Anti-peptide antibody response ([5]; HIV-positive patient nine): −
- Anti-peptide antibody response ([5]; HIV-positive patient one): −
- Anti-peptide antibody response ([5]; HIV-positive patient seven): −
- Anti-peptide antibody response ([5]; HIV-positive patient six): +
- Anti-peptide antibody response ([5]; HIV-positive patient ten): −
- Anti-peptide antibody response ([5]; HIV-positive patient thirteen): −
- Anti-peptide antibody response ([5]; HIV-positive patient three): −
- Anti-peptide antibody response ([5]; HIV-positive patient twelve): −
- Anti-peptide antibody response ([5]; HIV-positive patient two): +
- Anti-peptide antibody response ([5]; Normal-1 (HIV-seronegative)): −
- Anti-peptide antibody response ([5]; Normal-2 (HIV-seronegative)): −
- T-cell proliferative response to immunizing peptide and HIV Env protein gp160 [6]: induced a T-cell response against both the immunizing peptide and the HIV Env protein; also recorded: induced proliferative responses to both the immunizing peptide
- antibodies recognizing recombinant gp160 [6]: did not produce antibodies that could recognize recombinant gp160
- T-cell proliferation responses [6]: relatively good T-cell proliferation responses
- proliferative response of PBMCs (PBMCs; three monkeys immunized with peptide cocktail): good response

Sequence: SVITQACSKVSFE [Peptide 113]
- % Specific lysis at various E:T ratios 12.5:1 [1]: 0%
- % Specific lysis at various E:T ratios 25:1 [1]: 0%
- % Specific lysis at various E:T ratios 50:1 [1]: 0%
- % Specific lysis at various E:T ratios 100:1 [1]: 0%
- CTL activity against peptide-pulsed autologous B-LCLs [1]: did not serve as a CTL epitope
- T-cell proliferative response ([2]; chimpanzee 40, control normal): − (−, Negative (SI < 2.0))
- T-cell proliferative response ([2]; chimpanzee 62, HIV-infected): + (+, Positive (Stimulation Index [SI] > 2.0))
- T-cell proliferative response ([2]; chimpanzee 69, HIV-infected): + (+, Positive (Stimulation Index [SI] > 2.0))
- T-cell proliferative response ([2]; chimpanzee 73, control normal): − (−, Negative (SI < 2.0))
- T-cell proliferative response ([2]; chimpanzee 80, HIV-infected): + (+, Positive (Stimulation Index [SI] > 2.0))
- T-cell proliferative response ([2]; chimpanzee 99, HIV-infected): − (−, Negative (SI < 2.0))
- T-cell proliferative response ([2]; chimpanzee 100, HIV-infected): + (+, Positive (Stimulation Index [SI] > 2.0))
- T-cell proliferative response ([2]; chimpanzee 139, HIV-infected): − (−, Negative (SI < 2.0))
- T-cell proliferative response ([2]; chimpanzee 175, HIV-infected): + (+, Positive (Stimulation Index [SI] > 2.0))
- T-cell proliferative response ([2]; chimpanzee 247, HIV-infected): − (−, Negative (SI < 2.0))
- T-cell proliferative response ([2]; chimpanzee 310, HIV-infected): − (−, Negative (SI < 2.0))
- number of HIV-infected chimpanzees with positive proliferative responses (SI>2.0) [2]: five
- number of HIV+ individuals with positive proliferative responses [3]: five
- T-cell proliferative response ([3]; HIV-positive patient MSf): − (−, Negative (SI < 2.0))
- T-cell proliferative response ([3]; HIV-positive patient MSm): − (−, Negative (SI < 2.0))
- T-cell proliferative response ([3]; HIV-positive patient eight): − (−, Negative (SI < 2.0))
- T-cell proliferative response ([3]; HIV-positive patient eleven): − (−, Negative (SI < 2.0))
- T-cell proliferative response ([3]; HIV-positive patient fifteen): + (+, Positive (Stimulation Index [SI] > 2.0))
- T-cell proliferative response ([3]; HIV-positive patient five): − (−, Negative (SI < 2.0))
- T-cell proliferative response ([3]; HIV-positive patient four): − (−, Negative (SI < 2.0))
- T-cell proliferative response ([3]; HIV-positive patient fourteen): + (+, Positive (Stimulation Index [SI] > 2.0))
- T-cell proliferative response ([3]; HIV-positive patient nine): − (−, Negative (SI < 2.0))
- T-cell proliferative response ([3]; HIV-positive patient one): − (−, Negative (SI < 2.0))
- T-cell proliferative response ([3]; HIV-positive patient seven): + (+, Positive (Stimulation Index [SI] > 2.0))
- T-cell proliferative response ([3]; HIV-positive patient six): + (+, Positive (Stimulation Index [SI] > 2.0))
- T-cell proliferative response ([3]; HIV-positive patient ten): − (−, Negative (SI < 2.0))
- T-cell proliferative response ([3]; HIV-positive patient thirteen): + (+, Positive (Stimulation Index [SI] > 2.0))
- T-cell proliferative response ([3]; HIV-positive patient three): − (−, Negative (SI < 2.0))
- T-cell proliferative response ([3]; HIV-positive patient twelve): − (−, Negative (SI < 2.0))
- T-cell proliferative response ([3]; HIV-positive patient two): − (−, Negative (SI < 2.0))
- T-cell proliferative response ([3]; Normal-1 (HIV-seronegative)): − (−, Negative (SI < 2.0))
- T-cell proliferative response ([3]; Normal-2 (HIV-seronegative)): − (−, Negative (SI < 2.0))
- Anti-peptide antibody response [4]: −
- Anti-peptide antibody response [5]: + and −
- number of HIV+ individuals with positive antibody titers (<1:1280) [5]: one
- T-cell proliferative response to immunizing peptide and HIV Env protein gp160 [6]: induced a T-cell response against both the immunizing peptide and the HIV Env protein; also recorded: induced proliferative responses to both the immunizing peptide
- antibodies recognizing recombinant gp160 [6]: did not produce antibodies that could recognize recombinant gp160
- T-cell proliferation responses [6]: relatively good T-cell proliferation responses
- proliferative response of PBMCs (PBMCs; monkey, in vivo): weak responses
